Values quoted from earlier work as cited in the PKSmart pharmacokinetics tables (Seal et al. 2025).

Legend:
[1] = Lombardo et al. 2013, J Clin Pharmacol 53:178, doi 10.1177/0091270012440282; details: for Vd / clearance: in vivo, iv; for fraction unbound: plasma
[2] = Lombardo, Berellini, Obach 2018, Drug Metab Dispos 46:1466, doi 10.1124/dmd.118.082966; details: human; for Vd / clearance / half-life / MRT: in vivo, iv; for fraction unbound: plasma

| Structure (SMILES) | Vd ([1]; dog) [L/kg] | clearance ([1]; dog) [mL/min/kg] | Vd ([1]; monkey) [L/kg] | clearance ([1]; monkey) [mL/min/kg] | Vd ([1]; rat) [L/kg] | clearance ([1]; rat) [mL/min/kg] | fraction unbound ([1]; rat) | Vd [2] [L/kg] | clearance [2] [mL/min/kg] | half-life [2] [h] | fraction unbound ([1]; dog) | MRT [2] [h] | fraction unbound [2] | fraction unbound ([1]; monkey) |
| --- | --- | --- | --- | --- | --- | --- | --- | --- | --- | --- | --- | --- | --- | --- |
| CC(C)NCC(O)COc1ccc(COCCOC(C)C)cc1 (centres undefined) | 3.5 | 7.9 | 3 | 12 | 1.4 | 13 | 0.85 | 2.4 | 3.7 | 10 | – | – | – | – |
| COC(=O)C1=C(C)NC(C)=C(C(=O)OCC(C)C)C1c1ccccc1[N+](=O)[O-] (centres undefined) | 4.1 | 37.2 | – | – | 0.89 | 45.8 | – | 5.5 | 15 | 11 | 0.028 | 6.5 | – | – |
| CC(=O)[C@]1(O)Cc2c(O)c3c(c(O)c2[C@@H](O[C@H]2C[C@H](N)[C@H](O)[C@H](C)O2)C1)C(=O)c1ccccc1C3=O | 34.5 | – | – | – | 36.5 | 78.5 | – | 38 | 24 | 16 | – | 26 | 0.076 | – |
| CN1CCC[C@H]1c1cccnc1 | 3.3 | 42 | – | – | 2.77 | 46.3 | – | 2.6 | 18 | 2 | – | 2.4 | – | – |
| OC(Cn1cncn1)(Cn1cncn1)c1ccc(F)cc1F | 0.7 | 0.65 | – | – | 0.97 | 4.2 | 0.9 | 0.75 | 0.31 | 30 | – | 40 | – | – |
| CC(C)(C)NC(=O)C1C[C@@H]2CCCC[C@@H]2CN1C[C@@H](O)[C@H](Cc1ccccc1)NC(=O)C(CC(N)=O)NC(=O)c1ccc2ccccc2n1 (some centres undefined) | – | – | – | – | 3 | – | 0.007 | 3.6 | – | 13 | – | 4.6 | – | – |
| C[C@H]1[C@H](OC(=O)CCC(=O)O)O[C@@H]2O[C@@]3(C)CC[C@H]4[C@H](C)CC[C@@H]1[C@@]24OO3 | – | 44 | – | – | – | 212 | 0.22 | – | 1070 | 0.22 | 0.181 | 0.32 | 0.25 | – |
| COC(=O)C1=C(C)NC(C)=C(C(=O)OCCN(C)Cc2ccccc2)C1c1cccc([N+](=O)[O-])c1 (centres undefined) | 2.39 | – | 1.23 | – | 1.9 | – | 0.084 | 1 | – | 4.1 | 0.062 | 1.5 | – | 0.06 |
| O=C(c1ccc(F)cc1)C1CCN(CCn2c(=O)[nH]c3ccccc3c2=O)CC1 | – | 24.7 | – | – | – | 3.8 | 0.01 | – | – | 12 | 0.0948 | – | – | – |
| NC(=O)OC[C@@H]1C(=NC(=O)C(NOCC(=O)O)c2csc(N)n2)C(=O)N1S(=O)(=O)O (some centres undefined) | 0.1 | 5.5 | 0.12 | 4.5 | 0.1 | 22 | 0.7 | 0.18 | 1.5 | 1.6 | 0.89 | 2 | 0.72 | 0.76 |
| CCN1CCN(C(=O)NC(C(=O)NC2C(=O)N3C(C(=O)O)C(C)(C)S[C@H]23)c2ccccc2)C(=O)C1=O (some centres undefined) | 0.24 | 6.6 | 0.26 | 7.2 | 0.39 | 17.7 | 0.61 | 0.27 | – | 0.96 | 0.84 | 1.1 | – | 0.95 |
| Cc1nnc2n1-c1ccc(Cl)cc1C(c1ccccc1)=NC2 | – | – | – | – | 2.7 | 133 | 0.35 | 0.8 | 0.74 | 12 | – | 18 | – | – |
| NC(Cc1ccc(O)c(O)c1)C(=O)O (centres undefined) | 0.76 | 23.7 | – | – | – | 109 | – | 1.7 | 23 | 1.3 | – | 1.2 | 0.76 | – |
| COc1cc2nc(N3CCN(C(=O)C4COc5ccccc5O4)CC3)nc(N)c2cc1OC (centres undefined) | 5 | 13 | – | – | 3 | – | 0.03 | 1.3 | – | 10 | 0.0653 | 14 | – | – |
| CON=C(C(=O)NC1C(=O)N2C(C(=O)[O-])=C(C[n+]3ccc(N)n3CCO)CS[C@H]12)c1csc(N)n1 (some centres undefined) | 0.39 | 3.5 | 0.28 | 1.9 | 0.2 | 9.6 | – | 0.3 | 1.77 | 2.9 | – | 2.78 | – | – |
| Cc1cn([C@H]2C[C@H](N=[N+]=[N-])[C@@H](CO)O2)c(=O)[nH]c1=O | 1 | 14 | – | – | – | – | – | 1.8 | – | 1.3 | 0.827 | 1.2 | 0.8 | – |
| C[C@@H]1CCC[C@H](C)N1CCCC(O)(c1ccccc1)c1ccccn1 (some centres undefined) | 2.1 | 8.3 | 0.87 | 4.92 | 2.6 | 62 | 0.49 | 1.4 | 1.8 | 8.4 | 0.492 | 13 | – | 0.42 |
| Nc1ccc(S(=O)(=O)c2ccc(N)cc2)cc1 | – | – | – | – | 1.6 | 5.2 | – | 0.83 | – | – | – | 29 | 0.25 | – |
| O=C1CN=C(c2ccccc2Cl)c2cc([N+](=O)[O-])ccc2N1 | 2.49 | 24 | 6.8 | 14.3 | 3.1 | 70.5 | – | 2.9 | 0.88 | 38 | 0.18 | 55 | – | 0.121 |
| O=c1c(O)c(-c2ccc(O)c(O)c2)oc2cc(O)cc(O)c12 | – | – | – | – | 0.28 | 116 | – | 0.12 | 11 | 0.6 | – | 0.2 | 0.009 | – |
| Cc1nnc2n1-c1ccc(Cl)cc1C(c1ccccc1Cl)=NC2 | – | – | – | – | 3.4 | – | – | 0.58 | – | 2.7 | – | 3.2 | – | – |
| C#CCCCC(=O)c1cc(C(C)(C)C)c(O)c(C(C)(C)C)c1 | 24.8 | 30.9 | 10.4 | 14.9 | 7.9 | 41.4 | – | 12 | 8.9 | 50.7 | – | 22.3 | – | – |
| CCN(CC)CCNC(=O)c1cc(Cl)c(N)cc1OC | 1.1 | 23.1 | – | – | 3.3 | 48 | 0.426 | 3.2 | 5.7 | 7.2 | – | 9.4 | – | – |
| CC[C@@]1(O)CC(=O)OCc2c1cc1n(c2=O)Cc2cc3cc(F)c(F)cc3nc2-1 | 2.1 | 21.5 | – | – | 2 | 23 | – | 1.42 | 8.42 | 3.1 | – | 3.87 | 0.126 | – |
| CC(C)Oc1ccccc1N1CCN(Cc2cccc(C(=O)N3CCCCC3)c2)CC1 | – | – | – | – | 1.73 | 39.2 | 0.03 | 1.54 | 6.17 | 4.6 | – | 4.2 | – | – |
| C#C[C@]1(O)CC[C@H]2[C@@H]3CCc4cc(OS(=O)(=O)O)ccc4[C@H]3CC[C@@]21C | – | – | 21 | 39 | – | – | – | 2.3 | 4.7 | 8.4 | – | 8.2 | 0.011 | – |
| CN[C@@H](C)Cc1ccccc1 | – | – | – | – | 9 | 126 | 0.92 | 4.3 | 4.4 | 12 | – | 16 | 0.85 | – |
| Cc1ccsc1C(=CCCN1CCCC(C(=O)O)C1)c1sccc1C (centres undefined) | – | – | – | – | 2.05 | 89 | – | 1.1 | 1.6 | 10 | – | 12 | – | – |
